Consider 10 molecules from ChEMBL document CHEMBL1201862, “PubChem BioAssay data set” (2004).

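Exposure lasted 48 hours, with cells grown in 96-well plates and compounds tested at five concentrations. GI50: concentration for 50% inhibition of growth.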 Activity calls are given as the source filed them. Rule as the data show it: active = GI50 up to about 1.1 µM and inactive = higher.

Test systems include A498; A549; HCT-116; HL-60; HOP-62; HT-29; IGROV-1; LOX IMVI; M14; MOLT-4; OVCAR-3; OVCAR-8; SW-620; UACC-257; UO-31; SK-MEL-2.
What all share (assay): DTP human tumour cell line panel, 48 h

As for `NCCCNCCSSCCCCS(=O)O`, the GI50 was > 100 µM (inactive) in the experiment on A498; 59.8 µM (inactive) with A549; 25.7 µM (inactive) in the experiment on HCT-116; 10.4 µM (inactive) in the experiment with HL-60; > 100 µM (inactive) in the experiment with HOP-62; 39.8 µM (inactive) in the experiment with HT-29. In addition, the GI50 is > 100 µM (inactive) in the experiment on IGROV-1; 8.32 µM (inactive) in the experiment on LOX IMVI; 18.5 µM (inactive) in the experiment on M14; 5.09 µM (inactive) in the experiment with MOLT-4; 19.9 µM (inactive) with OVCAR-3; 38.6 µM (inactive) in the experiment on OVCAR-8. Further, the GI50 is 30.4 µM (inactive) in the experiment on SW-620, 17.2 µM (inactive) in the experiment with UACC-257 and 30.6 µM (inactive) with UO-31.
As for `O=C1/C(=C/c2ccc(Cl)cc2)CNC/C1=C\c1ccc(Cl)cc1`, the GI50 in the experiment with A498 was 2.32 µM (inactive); in the experiment with A549, 3.4 µM (inactive); with HCT-116, 1.65 µM (inactive); in the experiment with HOP-62, 3.42 µM (inactive); with IGROV-1, 2.17 µM (inactive); with M14 it was 1.89 µM (inactive). Moreover, the GI50 with MOLT-4 is 2.28 µM (inactive); with OVCAR-3, 1.86 µM (inactive); in the experiment on OVCAR-8 it was 3.6 µM (inactive); in the experiment on SW-620, 0.792 µM (active).
With `Cc1ccc(C)c(NC(=O)CCc2nnc(S)[nH]2)c1`, the GI50 is > 100 µM (inactive) with A498; > 100 µM (inactive) in the experiment with A549; 69.2 µM (inactive) in the experiment with HCT-116; > 100 µM (inactive) with HOP-62; > 100 µM (inactive) in the experiment with HT-29; 86.7 µM (inactive) with IGROV-1. Further, the GI50 with LOX IMVI, in the experiment on M14, with MOLT-4, in the experiment with OVCAR-3, with OVCAR-8 and in the experiment with SK-MEL-2 was > 100 µM (inactive) throughout. For the same molecule, the GI50 was 17.4 µM (inactive) in the experiment with SW-620, > 100 µM (inactive) in the experiment with UACC-257 and > 100 µM (inactive) in the experiment with UO-31.
`COc1ccc(C2c3cc4c(cc3OC(O)(CO)C2C(=O)O)OCO4)c(OC)c1OC.COc1ccc(C2c3cc4c(cc3OC3(O)COC(=O)C23)OCO4)c(OC)c1OC` (stereo not drawn): the GI50 in the experiment with A549 is > 100 µM (inactive); with HCT-116 it was > 100 µM (inactive); in the experiment on HL-60, 45 µM (inactive); in the experiment on HOP-62 it was > 100 µM (inactive); with HT-29 it was > 100 µM (inactive); with IGROV-1 it was > 100 µM (inactive). Further, the GI50 with LOX IMVI, with M14, in the experiment with MOLT-4, with OVCAR-3, in the experiment on OVCAR-8 and with SK-MEL-2 was > 100 µM (inactive) in each case. Besides, the GI50 in the experiment with SW-620, with UACC-257 and in the experiment with UO-31 was > 100 µM (inactive) each time.
Consider `CC(Oc1ccc2c(=O)cc(-c3ccccc3)oc2c1)C(=O)O` (stereo not drawn), for which the GI50 in the experiment on A498, in the experiment with A549, in the experiment on HCT-116, in the experiment on HL-60, with HOP-62 and with HT-29 was > 100 µM (inactive) throughout. Further, the GI50 in the experiment on IGROV-1, with LOX IMVI, in the experiment with M14, in the experiment on MOLT-4, in the experiment with OVCAR-3 and with OVCAR-8 was > 100 µM (inactive) each time. The GI50 in the experiment on SW-620, in the experiment on UACC-257 and in the experiment on UO-31 was > 100 µM (inactive) throughout.
For the molecule `CCOC(=O)C1=C(C(=O)OCC)C2c3ccccc3C=CN2C(C(=O)OCC)=C(SC)S1` (stereo not drawn), the GI50 with A549 was 47.6 µM (inactive); with HCT-116, 50.7 µM (inactive); in the experiment on HL-60, 25.9 µM (inactive); in the experiment with HOP-62, > 100 µM (inactive); with HT-29 it was > 100 µM (inactive); with IGROV-1, > 100 µM (inactive). Also, the GI50 in the experiment with LOX IMVI is 97.3 µM (inactive); in the experiment on M14 it was 89.1 µM (inactive); in the experiment with MOLT-4 it was 21.6 µM (inactive); in the experiment with OVCAR-3, 96.2 µM (inactive); in the experiment with OVCAR-8, > 100 µM (inactive); in the experiment on SK-MEL-2, > 100 µM (inactive). For the same molecule, the GI50 is 92.9 µM (inactive) in the experiment with SW-620, 42.5 µM (inactive) in the experiment on UACC-257 and 74.1 µM (inactive) with UO-31.
For the molecule `Cn1ncc2c(c1=O)Nc1ccccc1S2(=O)=O`, the GI50 in the experiment on A498 is > 100 µM (inactive); in the experiment with A549 it was > 100 µM (inactive); with HCT-116 it was 50 µM (inactive); in the experiment on HOP-62, > 100 µM (inactive); in the experiment with HT-29, > 100 µM (inactive); in the experiment on IGROV-1, > 100 µM (inactive). For the same molecule, the GI50 in the experiment on LOX IMVI, in the experiment on M14, in the experiment with MOLT-4, in the experiment on OVCAR-3, in the experiment with OVCAR-8 and in the experiment on SK-MEL-2 was > 100 µM (inactive) in each case. Further, the values for the GI50 with SW-620, in the experiment on UACC-257 and with UO-31 were 10.8 µM (inactive), > 100 µM (inactive) and > 100 µM (inactive), respectively.
Take `CC(=O)N1C/C(=C\c2ccc(N(C)C)cc2)C(=O)/C(=C/c2ccc(N(C)C)cc2)C1`: the GI50 with A498 is 33.5 µM (inactive); in the experiment on A549, > 100 µM (inactive); in the experiment on HCT-116 it was 40.6 µM (inactive); with HL-60, 29.9 µM (inactive); in the experiment on HOP-62, > 100 µM (inactive); with HT-29, 36.6 µM (inactive). The GI50 with IGROV-1 is 53.2 µM (inactive); with LOX IMVI it was 35.3 µM (inactive); in the experiment on M14 it was 40.1 µM (inactive); with MOLT-4, 51.4 µM (inactive); in the experiment on OVCAR-3 it was 20.4 µM (inactive); with OVCAR-8 it was 84.1 µM (inactive). Moreover, the figures for the GI50 in the experiment on SW-620, in the experiment on UACC-257 and in the experiment on UO-31 were 41.5 µM (inactive), 47.4 µM (inactive) and > 100 µM (inactive), respectively.
As to `COc1ccc(CC(=O)c2cc(OC)c(OC)cc2C)cc1OC`, the GI50 with A498 is > 100 µM (inactive); in the experiment with A549, 71.6 µM (inactive); in the experiment on HOP-62 it was > 100 µM (inactive); in the experiment with HT-29, > 100 µM (inactive); in the experiment on IGROV-1, 14 µM (inactive); in the experiment with M14 it was > 100 µM (inactive). Besides, the GI50 was 44.8 µM (inactive) with MOLT-4; 77.6 µM (inactive) in the experiment on OVCAR-3; > 100 µM (inactive) with OVCAR-8; > 100 µM (inactive) in the experiment on SK-MEL-2; > 100 µM (inactive) with SW-620; 21.3 µM (inactive) in the experiment on UACC-257. Further, the GI50 in the experiment on UO-31 is 18.2 µM (inactive).
As for `CC(=O)Nc1ccc(-c2nnc(SCC(=O)Nc3ccc(C)cc3)o2)cc1`, the GI50 in the experiment on A549 is 40.3 µM (inactive); with HCT-116, 15.7 µM (inactive); in the experiment with HL-60 it was 27.8 µM (inactive); in the experiment on HOP-62 it was 56.2 µM (inactive); with HT-29, 17 µM (inactive); in the experiment with IGROV-1, 12.9 µM (inactive). In addition, the GI50 in the experiment on LOX IMVI is 15.2 µM (inactive); in the experiment on M14 it was 16.1 µM (inactive); in the experiment on MOLT-4 it was 32.1 µM (inactive); in the experiment on OVCAR-3 it was 22.4 µM (inactive); in the experiment with OVCAR-8, 27.7 µM (inactive); in the experiment on SK-MEL-2 it was 14.5 µM (inactive). Also, the values for the GI50 in the experiment with SW-620, in the experiment with UACC-257 and with UO-31 were 19.1 µM (inactive), 20.3 µM (inactive) and 47.6 µM (inactive), respectively.

As usually defined, the GI50 is the concentration that inhibits growth by half.
